Laboratory results taken from article PMC4501059, “Responding to the challenge of untreatable gonorrhea: ETX0914, a first-in-class agent with a distinct mechanism-of-action against bacterial Type II topoisomerases” (Scientific Reports, 2015).
≈ marks a conversion by molar mass, not a printed value. Where two headings read alike, the source gives them in different places.

Columns and labels:
Staphylococcus aureus = details: cited from earlier work
Neisseria gonorrhoeae = details: cited from earlier work
mouse lymphoma cells = experiment: in vitro mouse micronucleus aberration assay (MMA); type: cell-based
Procedure: (§1) In vitro toxicology. Experiments for assessing micronuclei in mouse lymphoma cells^19 myeloid cytotoxicity^20 and erythroid cytotoxicity^21 were performed as described previously.

Ito/Kv4.3 = target: T1, Ito/Kv4.3 (Homo sapiens, UniProt Q9UK17); experiment: In vitro ion channel function; type: cell-based; details: Ito/Kv4.3 IC50, Transient outward K^+ early repolarization
T1 sequence (Q9UK17 1-655): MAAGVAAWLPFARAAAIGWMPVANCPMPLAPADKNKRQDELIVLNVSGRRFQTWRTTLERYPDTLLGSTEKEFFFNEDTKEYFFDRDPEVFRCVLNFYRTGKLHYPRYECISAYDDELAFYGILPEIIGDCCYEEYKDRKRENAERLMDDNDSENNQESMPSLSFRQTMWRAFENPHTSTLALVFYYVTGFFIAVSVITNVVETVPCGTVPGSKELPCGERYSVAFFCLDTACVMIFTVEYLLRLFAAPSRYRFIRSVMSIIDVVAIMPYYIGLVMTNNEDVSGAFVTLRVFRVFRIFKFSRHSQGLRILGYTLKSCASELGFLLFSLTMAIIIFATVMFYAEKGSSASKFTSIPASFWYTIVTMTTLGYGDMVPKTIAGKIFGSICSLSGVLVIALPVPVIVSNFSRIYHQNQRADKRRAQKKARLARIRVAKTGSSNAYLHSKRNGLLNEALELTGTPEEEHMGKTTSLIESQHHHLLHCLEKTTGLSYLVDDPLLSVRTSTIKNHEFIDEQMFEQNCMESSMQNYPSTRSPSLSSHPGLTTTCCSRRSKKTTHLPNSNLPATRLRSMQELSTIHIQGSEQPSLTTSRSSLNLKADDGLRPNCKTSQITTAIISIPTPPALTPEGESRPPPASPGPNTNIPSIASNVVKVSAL
Description: (§2) Supplement srep11827-s1.doc, table 3 | column: Table S2: In vitro ion channel function IC50 (µM)

Iks/Kv7.1 = Iks/Kv7.1 (Homo sapiens, UniProt P51787); experiment: In vitro ion channel function; type: cell-based; details: Iks/Kv7.1 IC50, Slowly activating K^+ delayed rectifier
Description: as §2

hNav1.5 = hNav1.5 (Homo sapiens, UniProt Q14524); experiment: In vitro ion channel function; type: cell-based; details: hNav1.5 IC50, Initiation of cardiac action potential/QRS interval
Description: as §2

Kv1.5 = Kv1.5 (Homo sapiens, UniProt P22460); experiment: In vitro ion channel function; type: cell-based; details: Ikr/Kv1.5 IC50, Rapidly activating K^+ delayed rectifier
Description: as §2

hCav1.2 = hCav1.2 (Homo sapiens, UniProt Q13936); experiment: In vitro ion channel function; type: cell-based; details: hCav1.2 IC50, Ca^2+ entry into excitable cells
Description: as §2

hERG = hERG (Homo sapiens, UniProt Q12809); experiment: In vitro ion channel function; details: hERG IC50, K^+ rectifying current/QT interval
[1] = test system: N. gonorrhoeae ARC4676 (QR); type: cell-based
[2] = Human plasma protein binding (PPB); details: plasma
[3] = test system: S. aureus AP607004 (MRQR); experiment: MIC (CLSI broth microdilution); type: cell-based
[4] = test system: S. pneumoniae ARC2205 (ERQR); experiment: MIC (CLSI broth microdilution); type: cell-based
S. aureus ARC516 = experiment: MIC (CLSI broth microdilution); type: cell-based
S. pneumoniae ATCC49619 = experiment: MIC (CLSI broth microdilution); type: cell-based
N. gonorrhoeae ATCC49226 = experiment: MIC (CLSI agar dilution); type: cell-based
Dog pharmacokinetics = type: in vivo, Beagle dog; details: beagle, dog, plasma
Procedure: AZD0914 was analyzed in mouse, rat, dog, monkey plasma using a qualified method which was later validated for human plasma analysis. The validated human method is described below and is representative of the approach taken in other species. AZD0914 was determined in human plasma prepared with K2EDTA as an anticoagulant. AZD0914 and an internal standard (^13C2, ^15N2 AZD0914) were extracted from plasma with tert- butyl methyl ether. After evaporating to dryness under a stream of nitrogen, the residue was reconstituted and quantitated by reverse phase HPLC-MS/MS against a standard curve from 1.00 to 5000 ng/ml. Separation was achieved using a gradient which went from 55% to 85% methanol:acetonitrile (1:1) containing 0.2% formic acid as mobile phase B and 0.2% formic acid in water as mobile phase A at a flow rate of 0.60 ml/min through a Phenomonex Gemini C18 column (50 x 2.0 mm column, […]) heated using a Shimadzu CTO-20AC set to 40 °C. AZD0914 was detected in multiple reaction monitoring (MRM) mode by positive ion electrospray ionization using a Sciex API5500 (Toronto, Canada) mass spectrometer. The ion spray voltage was set to 5500 V and turboionspray temperature was 650 °C. AZD0914 was quantitated using the MRM transition 488.2 → 348.2 using a collision energy of 29 eV. The internal standard, (^13C2, ^15N2 AZD0914), was monitored using identical conditions except for the MRM transition of 492.2 → 348.2.

[5] = comparative haematology analysis in the rat, oral dosing; details: for AUC: in vivo, po
[6] = test system: mammalian erythroid cell lines; experiment: erythroid cytotoxicity (growth inhibition); type: cell-based; details: read-out: Erythroid IC50
Procedure: as §1

[7] = test system: mammalian myeloid cell lines; experiment: myeloid cytotoxicity (growth inhibition); type: cell-based; details: read-out: Myeloid IC50
Procedure: as §1

[8] = test system: resistant isolates of S. aureus, S. pneumoniae and N. gonorrhoeae; type: cell-based; details: for susceptibility of spontaneous ETX0914 resistant mutants: S. aureus and N. gonorrhoeae GyrB mutants
[9] = Table 2, first entry of the cell (ciprofloxacin: 250 mg UID line)

Sequence of hCav1.2 (P54289 25-1103): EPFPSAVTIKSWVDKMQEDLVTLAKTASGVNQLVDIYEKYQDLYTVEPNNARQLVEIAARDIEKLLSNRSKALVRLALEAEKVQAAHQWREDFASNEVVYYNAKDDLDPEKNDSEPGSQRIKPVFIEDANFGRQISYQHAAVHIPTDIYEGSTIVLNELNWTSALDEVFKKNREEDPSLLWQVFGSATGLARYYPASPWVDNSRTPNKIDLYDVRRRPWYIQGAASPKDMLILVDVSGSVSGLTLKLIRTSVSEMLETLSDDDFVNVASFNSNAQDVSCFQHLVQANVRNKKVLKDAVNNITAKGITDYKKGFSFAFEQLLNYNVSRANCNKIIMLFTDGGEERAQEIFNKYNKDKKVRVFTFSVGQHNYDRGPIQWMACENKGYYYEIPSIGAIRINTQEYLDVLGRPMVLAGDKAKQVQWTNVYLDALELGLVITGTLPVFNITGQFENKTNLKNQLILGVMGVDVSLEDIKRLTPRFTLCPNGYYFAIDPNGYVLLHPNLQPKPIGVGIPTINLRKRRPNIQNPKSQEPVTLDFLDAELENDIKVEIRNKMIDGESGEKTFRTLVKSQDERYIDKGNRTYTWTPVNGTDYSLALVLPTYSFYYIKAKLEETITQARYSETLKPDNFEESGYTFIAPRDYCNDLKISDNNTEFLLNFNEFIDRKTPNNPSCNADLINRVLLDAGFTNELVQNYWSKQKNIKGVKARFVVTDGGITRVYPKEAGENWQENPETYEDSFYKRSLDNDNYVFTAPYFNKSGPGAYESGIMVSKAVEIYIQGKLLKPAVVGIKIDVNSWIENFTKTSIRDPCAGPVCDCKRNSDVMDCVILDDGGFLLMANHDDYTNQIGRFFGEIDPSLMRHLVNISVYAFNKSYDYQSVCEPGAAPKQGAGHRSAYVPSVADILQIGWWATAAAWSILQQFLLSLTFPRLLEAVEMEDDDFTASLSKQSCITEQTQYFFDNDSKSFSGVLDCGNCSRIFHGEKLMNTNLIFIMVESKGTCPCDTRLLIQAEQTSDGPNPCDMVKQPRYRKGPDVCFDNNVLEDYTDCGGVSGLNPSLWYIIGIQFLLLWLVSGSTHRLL
Sequence of hCav1.2 (Q13936 whole entry): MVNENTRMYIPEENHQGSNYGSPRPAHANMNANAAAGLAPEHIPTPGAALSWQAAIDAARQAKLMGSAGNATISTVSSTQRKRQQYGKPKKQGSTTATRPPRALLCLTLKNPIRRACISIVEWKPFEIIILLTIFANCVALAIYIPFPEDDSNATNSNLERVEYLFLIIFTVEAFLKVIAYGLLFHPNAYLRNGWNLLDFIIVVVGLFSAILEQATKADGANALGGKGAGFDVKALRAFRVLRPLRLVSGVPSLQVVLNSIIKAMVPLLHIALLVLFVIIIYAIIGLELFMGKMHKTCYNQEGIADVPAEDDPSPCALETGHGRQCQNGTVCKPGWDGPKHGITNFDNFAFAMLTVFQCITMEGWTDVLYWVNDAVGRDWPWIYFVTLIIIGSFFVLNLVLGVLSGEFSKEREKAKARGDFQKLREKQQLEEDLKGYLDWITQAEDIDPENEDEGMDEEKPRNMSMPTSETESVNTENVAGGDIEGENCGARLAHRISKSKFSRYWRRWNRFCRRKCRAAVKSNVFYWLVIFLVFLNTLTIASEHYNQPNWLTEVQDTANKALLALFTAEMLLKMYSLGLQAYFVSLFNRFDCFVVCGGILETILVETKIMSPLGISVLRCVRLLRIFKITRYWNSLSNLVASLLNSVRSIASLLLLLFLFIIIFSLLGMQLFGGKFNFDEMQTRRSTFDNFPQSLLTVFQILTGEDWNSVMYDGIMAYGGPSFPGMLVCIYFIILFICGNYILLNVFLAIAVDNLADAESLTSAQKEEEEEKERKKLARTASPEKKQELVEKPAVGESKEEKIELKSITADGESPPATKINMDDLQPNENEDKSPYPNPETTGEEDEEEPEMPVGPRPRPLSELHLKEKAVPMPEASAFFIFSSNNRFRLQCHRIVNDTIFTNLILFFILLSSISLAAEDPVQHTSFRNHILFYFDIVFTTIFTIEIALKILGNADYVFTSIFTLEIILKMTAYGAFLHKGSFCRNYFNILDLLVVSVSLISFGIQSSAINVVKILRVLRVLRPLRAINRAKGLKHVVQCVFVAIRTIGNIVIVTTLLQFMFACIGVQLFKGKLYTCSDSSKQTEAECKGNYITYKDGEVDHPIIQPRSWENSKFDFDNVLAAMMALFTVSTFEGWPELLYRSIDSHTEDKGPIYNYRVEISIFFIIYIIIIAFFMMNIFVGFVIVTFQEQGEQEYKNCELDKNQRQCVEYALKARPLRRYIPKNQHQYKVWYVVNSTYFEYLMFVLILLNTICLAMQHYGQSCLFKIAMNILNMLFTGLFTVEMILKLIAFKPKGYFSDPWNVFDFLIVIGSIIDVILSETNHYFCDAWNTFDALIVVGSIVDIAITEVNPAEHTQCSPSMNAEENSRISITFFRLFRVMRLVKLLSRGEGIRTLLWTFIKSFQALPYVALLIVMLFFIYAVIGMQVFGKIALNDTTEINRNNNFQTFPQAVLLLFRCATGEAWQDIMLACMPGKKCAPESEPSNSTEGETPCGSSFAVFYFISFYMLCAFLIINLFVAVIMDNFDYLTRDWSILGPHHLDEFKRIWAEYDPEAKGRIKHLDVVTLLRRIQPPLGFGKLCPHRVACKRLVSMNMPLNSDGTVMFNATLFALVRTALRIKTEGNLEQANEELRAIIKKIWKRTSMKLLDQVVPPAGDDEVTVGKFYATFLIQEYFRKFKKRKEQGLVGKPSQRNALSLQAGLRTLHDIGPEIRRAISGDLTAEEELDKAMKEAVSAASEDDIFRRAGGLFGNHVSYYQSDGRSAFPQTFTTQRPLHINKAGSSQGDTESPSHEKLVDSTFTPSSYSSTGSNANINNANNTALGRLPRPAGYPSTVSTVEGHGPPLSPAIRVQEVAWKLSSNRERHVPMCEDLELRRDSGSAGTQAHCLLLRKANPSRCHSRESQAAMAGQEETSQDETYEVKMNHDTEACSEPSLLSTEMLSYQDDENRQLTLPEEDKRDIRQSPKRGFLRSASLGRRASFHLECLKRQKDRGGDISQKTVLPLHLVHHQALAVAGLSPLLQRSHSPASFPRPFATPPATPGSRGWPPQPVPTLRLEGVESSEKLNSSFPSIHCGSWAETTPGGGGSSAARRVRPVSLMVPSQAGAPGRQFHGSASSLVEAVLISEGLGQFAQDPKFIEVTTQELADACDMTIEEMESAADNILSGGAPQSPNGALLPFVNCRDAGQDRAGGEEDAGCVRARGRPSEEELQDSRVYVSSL
Sequence of hCav1.2 (Q08289 whole entry, further chain): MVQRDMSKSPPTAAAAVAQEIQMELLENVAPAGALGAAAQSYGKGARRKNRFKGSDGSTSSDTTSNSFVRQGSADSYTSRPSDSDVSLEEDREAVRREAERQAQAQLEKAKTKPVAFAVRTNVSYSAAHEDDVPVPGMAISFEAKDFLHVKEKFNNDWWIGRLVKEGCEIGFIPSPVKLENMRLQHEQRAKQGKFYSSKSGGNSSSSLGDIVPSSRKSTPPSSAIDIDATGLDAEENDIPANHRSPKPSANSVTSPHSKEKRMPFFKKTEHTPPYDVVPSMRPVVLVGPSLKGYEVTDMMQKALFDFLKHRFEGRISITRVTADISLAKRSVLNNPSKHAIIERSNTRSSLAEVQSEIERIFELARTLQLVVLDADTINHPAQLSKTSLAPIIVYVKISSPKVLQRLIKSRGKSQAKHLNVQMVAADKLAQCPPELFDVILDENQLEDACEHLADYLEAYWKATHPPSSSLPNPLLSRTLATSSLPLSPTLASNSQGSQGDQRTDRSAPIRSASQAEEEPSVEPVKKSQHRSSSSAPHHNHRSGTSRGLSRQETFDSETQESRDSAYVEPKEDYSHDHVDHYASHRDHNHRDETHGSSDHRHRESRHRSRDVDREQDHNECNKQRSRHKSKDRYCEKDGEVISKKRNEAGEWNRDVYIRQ
Sequence of Iks/Kv7.1 (P51787 whole entry): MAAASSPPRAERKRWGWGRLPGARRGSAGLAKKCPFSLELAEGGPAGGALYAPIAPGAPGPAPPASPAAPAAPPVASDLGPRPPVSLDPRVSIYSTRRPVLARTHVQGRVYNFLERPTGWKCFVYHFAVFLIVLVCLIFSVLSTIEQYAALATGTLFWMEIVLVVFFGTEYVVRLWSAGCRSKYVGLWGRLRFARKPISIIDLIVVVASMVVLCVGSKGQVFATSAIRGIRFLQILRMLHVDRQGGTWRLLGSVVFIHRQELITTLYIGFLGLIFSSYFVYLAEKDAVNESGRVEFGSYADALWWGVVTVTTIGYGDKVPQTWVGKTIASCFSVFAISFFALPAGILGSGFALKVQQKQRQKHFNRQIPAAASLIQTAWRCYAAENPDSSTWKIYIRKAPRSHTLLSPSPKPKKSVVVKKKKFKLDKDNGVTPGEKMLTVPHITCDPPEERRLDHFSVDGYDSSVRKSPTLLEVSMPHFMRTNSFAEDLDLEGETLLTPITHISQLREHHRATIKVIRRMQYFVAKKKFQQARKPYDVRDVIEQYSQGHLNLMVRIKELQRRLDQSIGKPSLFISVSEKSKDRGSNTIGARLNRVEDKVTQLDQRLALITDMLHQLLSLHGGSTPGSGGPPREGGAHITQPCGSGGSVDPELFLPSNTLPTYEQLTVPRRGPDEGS

Row | SMILES | IC50 (Ito/Kv4.3) [µM] | IC50 (Iks/Kv7.1) [µM] | IC50 (hNav1.5) [µM] | IC50 (hCav1.2) [µM] | IC50 (hERG) [µM] | MIC: N. gonorrhoeae ARC4676 (QR) [1] [µg/mL] | fraction unbound [2] | MIC: S. aureus AP607004 (MRQR) [3] [µg/mL] | Micronucleus NOEL (mouse lymphoma cells; in vitro) [µM] | MIC: S. pneumoniae ARC2205 (ERQR) [4] [µg/mL] | MIC: S. aureus ARC516 (S. aureus ARC516) [µg/mL] | MIC: S. pneumoniae ATCC49619 (S. pneumoniae ATCC49619) [µg/mL] | MIC: N. gonorrhoeae ATCC49226 (N. gonorrhoeae ATCC49226) [µg/mL] | solubility (physchem) [µM] | Dog F (Dog pharmacokinetics) [%] | clearance (Dog pharmacokinetics) [mL/min/kg] | IC50 [6] [µM] | IC50 [7] [µM] | further results
1 | CO/N=C(\C(=O)N[C@@H]1C(=O)N2C(C(=O)O)=C(CSc3nc(=O)c(=O)[nH]n3C)CS[C@H]12)c1csc(N)n1 [Ceftriaxone, reference compound] | – | – | – | – | – | – | – | – | – | – | – | – | – | – | – | – | – | – | MIC90 for S. aureus (Staphylococcus aureus): 8 µg/mL
2 | O=C(O)c1cn(C2CC2)c2cc(N3CCNCC3)c(F)cc2c1=O [Ciprofloxacin 2, Ciprofloxacin, reference compound] | – | – | – | – | – | – | – | – | – | – | – | – | – | – | – | – | – | – | MIC90, gonococcal infection (N. gonorrhoeae) (Neisseria gonorrhoeae; [9]): 0.06 to 0.12 µg/mL; MIC90, gonococcal infection (N. gonorrhoeae) (Neisseria gonorrhoeae; second entry of the cell, 500 mg UID line): 0.25 to 0.5 µg/mL; Micronucleus NOEL (mouse lymphoma cells; mouse): 200 µM
3 | C[C@@H]1CN2c3c(cc4c(N5C(=O)OC[C@@H]5C)noc4c3F)CC3(C(=O)NC(=O)NC3=O)[C@H]2[C@H](C)O1 [Compound 1] | > 292 | > 316 | > 316 | > 100 | 232 | – | – | – | – | – | – | – | – | – | – | – | – | – | IC50 (Kv1.5): > 100 µM
4 | Cc1noc2c(F)c3c(cc12)CC1(C(=O)NC(=O)NC1=O)[C@H]1[C@H](C)O[C@H](C)CN31 [Compound 5, (2R,4S,4aS)-11-Fluoro-2,4,8-trimethyl-2,4,4a,6-tetrahydro-1H,1'H-spiro[isoxazolo[4,5-g][1,4]oxazino[4,3-a]quinoline-5,5'-pyrimidine]-2',4',6'(3'H)-trione] | > 100 | > 100 | > 80 | > 100 | > 100 | 0.5 (≈ 1.24 µM) | 0.094 | 0.5 (≈ 1.24 µM) | 50 | 2.0 (≈ 4.97 µM) | 0.25 (≈ 0.621 µM) | 1.0 (≈ 2.49 µM) | 0.5 (≈ 1.24 µM) | 210 (≈ 84.5 µg/mL) | 47 | 5.3 | – | – | IC50 (Kv1.5): > 100 µM; concentration giving a measurable genotoxicity signal in the in vitro MMA (mouse lymphoma cells; mouse): 100 µM
5 | C[C@@H]1CN2c3c(cc4c(-n5cncn5)noc4c3F)CC3(C(=O)NC(=O)NC3=O)[C@H]2[C@H](C)O1 [Compound 6] | 224 | > 333 | > 333 | > 100 | 237 | 0.125 (≈ 0.274 µM) | 0.13 | 0.063 (≈ 0.138 µM) | 3 | 0.125 (≈ 0.274 µM) | 0.031 (≈ 0.0681 µM) | 0.125 (≈ 0.274 µM) | 0.25 (≈ 0.549 µM) | 73 (≈ 33.2 µg/mL) | 99 | 4.5 | – | – | haematologic effects ([5]; 100 mg/kg/day for 14 days in the rat): decreases in reticulocytes, neutrophils, lymphocytes and monocytes; AUC ([5]; rat, 100 mg/kg): 950 µM·h; AUC ([5]; rat, 250 mg/kg): 1700 µM·h; reticulocytes count ([5]; rat, 6 at the higher dose (250 mg/kg, 5 d), linezolid 6 d): significant suppression; neutrophil count ([5]; rat, both doses of 6, linezolid): showing suppression; lymphocyte counts ([5]; rat, higher dose of 6): leading to suppression; white blood cell count ([5]; rat, higher dose of 6): leading to suppression
6 | C[C@@H]1CN2c3c(cc4c(C(=O)NCC(F)(F)F)noc4c3F)CC3(C(=O)NC(=O)NC3=O)[C@H]2[C@H](C)O1 [Compound 7] | > 90 | > 100 | > 100 | > 100 | 91 | 0.25 (≈ 0.487 µM) | 0.13 | 0.25 (≈ 0.487 µM) | 100 | 0.125 (≈ 0.243 µM) | 0.125 (≈ 0.243 µM) | 0.125 (≈ 0.243 µM) | 0.25 (≈ 0.487 µM) | 77 (≈ 39.5 µg/mL) | 74 | 5.8 | 95 | 43 | IC50 (Kv1.5): > 100 µM
7 | Cc1nnc(-c2noc3c(F)c4c(cc23)CC2(C(=O)NC(=O)NC2=O)[C@H]2[C@H](C)O[C@H](C)CN42)o1 [Compound 8] | – | – | – | – | – | 1 (≈ 2.13 µM) | 0.13 | 0.25 (≈ 0.531 µM) | > 200 | 0.25 (≈ 0.531 µM) | 0.25 (≈ 0.531 µM) | 0.125 (≈ 0.266 µM) | 1 (≈ 2.13 µM) | 1350 (≈ 635 µg/mL) | 32 | 4.7 | > 100 | 76 | –
8 | CO/N=C1\CN(c2nc3c(cc2F)c(=O)c(C(=O)O)cn3C2CC2)CC1CN (stereo not drawn) [Gemifloxacin, reference compound] | – | – | – | – | – | – | – | – | 3 | – | – | – | – | – | – | – | 7 | 10 | concentration giving a measurable genotoxicity signal in the in vitro MMA (mouse lymphoma cells): 6 µM
9 | C[C@H]1COc2c(N3CCN(C)CC3)c(F)cc3c(=O)c(C(=O)O)cn1c23 [Levofloxacin, reference compound] | – | – | – | – | – | – | – | 8 (≈ 22.1 µM) | – | 16 (≈ 44.3 µM) | 0.25 (≈ 0.692 µM) | 0.5 (≈ 1.38 µM) | – | – | – | – | 88 | 79 | –
10 | N#Cc1ccc2ccc(=O)n(CCN3CC[C@H](NCc4cc5c(cn4)OCCO5)[C@H](F)C3)c2c1 [NBTI 3, 1-[2-[(3R,4S)-4-(2,3-Dihydro-[1,4]dioxino[2,3-c]pyridin-7-ylmethylamino)-3-fluoro-1-piperidyl]ethyl]-2-oxo-quinoline-7-carbonitrile] | – | – | – | – | – | – | – | – | – | – | – | – | – | – | – | – | – | – | susceptibility of fluoroquinolone resistant isolate ARC4680 ([8]; N. gonorrhoeae ARC4680): reduced susceptibility; susceptibility of spontaneous ETX0914 resistant mutants [8]: fully susceptible
11 | CO[C@@H]1[C@@H](OC(N)=O)[C@@H](O)[C@H](Oc2ccc3c(O)c(NC(=O)c4ccc(O)c(CC=C(C)C)c4)c(=O)oc3c2C)OC1(C)C [Novobiocin 4, Novobiocin] | – | – | – | – | – | – | – | – | – | – | – | – | – | – | – | – | – | – | susceptibility of fluoroquinolone resistant clinical isolates ([8]; S. aureus ARC2381, S. pneumoniae ARC2480, N. gonorrhoeae ARC4672, ARC4680, ARC4676): fully susceptible; susceptibility of spontaneous ETX0914 resistant mutants [8]: fully susceptible
12 | CC1COc2c(N3CCN(C)CC3)c(F)cc3c(=O)c(C(=O)O)cn1c23 (stereo not drawn) [Ofloxacin, reference compound] | – | – | – | – | – | – | – | – | – | – | – | – | – | – | – | – | – | – | MIC90, skin infection (S. aureus) (Staphylococcus aureus; Table 2): 2 µg/mL (≈ 5.53 µM); MIC90, gonococcal infection (N. gonorrhoeae) (Neisseria gonorrhoeae; [9]): 0.25 to 0.5 µg/mL
